{"source": "patent US20070232615A1", "about": "“Chemical Compounds” (priority 2004, published 2007)"}
{"tested_on": "HIV", "experiment": "HOS HIV infectivity assay (Table 2, strain not given)", "type": "cell-based", "conditions": "Human immunodeficiency virus 1, read-out: Activity Level", "experimental": "HOS HIV-1 Infectivity Assay\nCompounds were profiled against two HIV-1 viruses, the M-tropic (CCR5 utilizing) Ba-L strain and the T-tropic (CXCR4 utilizing) IIIB strain. Both viruses were propagated in human peripheral blood lymphocytes. Compounds were tested for there ability to block infection of the HOS cell line (expressing hCXCR4/hCCR5/hCD4/pHIV-LTR-luciferase) by either HIV-1 Ba-L or HIV-1 IIIB. Compound cytotoxicity was also examined in the absence of virus addition.\nHOS HIV-1 Infectivity Assay Format\nHOS cells (expressing hCXCR4/hCCR5/hCD4/pHIV-LTR-luciferase) were harvested and diluted in Dulbeccos modified Eagles media supplemented with 2% FCS and non-essential amino acid to a concentration of 60,000 cells/ml. The cells were plated into 96-well plates (100 ul per well) and the plates were placed in a tissue culture incubator (37° C.; 5% CO2/95% air) for a period of 24 h.\nSubsequently, 50 ul of the desired drug solution (4 times the final concentration) was added to each well and the plates were returned to the tissue culture incubator (37° C.; 5% CO2/95% air) for 1 h. Following this incubation 50 ul of diluted virus was added to each well (approximately 2 million RLU per well of virus). The plates were returned to the tissue culture incubator (37° C.; 5% CO2/95% air) and were incubated for a further 96 h.\nFollowing this incubation the endpoint for the virally infected cultures was quantified following addition of Steady-Glo Luciferase assay system reagent (Promega, Madison, Wis.). Cell viability or non-infected cultures was measured using a CellTiter-Glo luminescent cell viability assay system (Promega, Madison, Wis.). All luminescent readouts are performed on a Topcount luminescence detector (Packard, Meridien, Conn.).", "units": {"IC50": "nM"}}
{"smiles": "CCN(Cc1cn2c(N3CCN(C)CC3)cccc2n1)[C@H]1CCCc2cccnc21", "note": "[Example 54, (8S)—N-Ethyl-N-{[5-(4-methyl-1-piperazinyl)imidazo[1,2-a]pyridin-2-yl]methyl}-5,6,7,8-tetrahydro-8-quinolinamine]", "IC50": "< 100"}
{"smiles": "CC(C)N(Cc1cn2c(N3CCN(C)CC3)cccc2n1)[C@H]1CCCc2cccnc21", "note": "[Example 55, (8S)—N-(1-Methylethyl)-N-{[5-(4-methyl-1-piperazinyl)imidazo[1,2-a]pyridin-2-yl]methyl}-5,6,7,8-tetrahydro-8-quinolinamine]", "IC50": "< 100"}
{"smiles": "CCCN(Cc1cn2c(N3CCN(C)CC3)cccc2n1)[C@H]1CCCc2cccnc21", "note": "[Example 56, (8S)—N-{[5-(4-Methyl-1-piperazinyl)imidazo[1,2-a]pyridin-2-yl]methyl}-N-propyl-5,6,7,8-tetrahydro-8-quinolinamine]", "IC50": "< 100"}
{"smiles": "CN1CCN(c2cccc3nc(CN(CC4CC4)[C@H]4CCCc5cccnc54)cn23)CC1", "note": "[Example 57, (8S)—N-(Cyclopropylmethyl)-N-{[5-(4-methyl-1-piperazinyl)imidazo[1,2-a]pyridin-2-yl]methyl}-5,6,7,8-tetrahydro-8-quinolinamine]", "IC50": "< 100"}
{"smiles": "CCCCN(Cc1cn2c(N3CCN(C)CC3)cccc2n1)[C@H]1CCCc2cccnc21", "note": "[Example 58, (8S)—N-Butyl-N-{[5-(4-methyl-1-piperazinyl)imidazo[1,2-a]pyridin-2-yl]methyl}-5,6,7,8-tetrahydro-8-quinolinamine]", "IC50": "< 100"}
{"smiles": "CN1CCN(c2cccc3nc(CN(Cc4ccccc4)[C@H]4CCCc5cccnc54)cn23)CC1", "note": "[Example 59, (8S)—N-{[5-(4-Methyl-1-piperazinyl)imidazo[1,2-a]pyridin-2-yl]methyl}-N-(phenylmethyl)-5,6,7,8-tetrahydro-8-quinolinamine]", "IC50": "< 100"}
{"smiles": "CN1CCN(c2cccc3nc(CN(Cc4ccccc4F)[C@H]4CCCc5cccnc54)cn23)CC1", "note": "[Example 60, (8S)—N-[(2-Fluorophenyl)methyl]-N-{[5-(4-methyl-1-piperazinyl)imidazo[1,2-a]pyridin-2-yl]methyl}-5,6,7,8-tetrahydro-8-quinolinamine]", "IC50": "< 100"}
{"smiles": "CN1CCN(c2cccc3nc(CN(Cc4cccc(F)c4)[C@H]4CCCc5cccnc54)cn23)CC1", "note": "[Example 61, (8S)—N-[(3-Fluorophenyl)methyl]-N-{[5-(4-methyl-1-piperazinyl)imidazo[1,2-a]pyridin-2-yl]methyl}-5,6,7,8-tetrahydro-8-quinolinamine]", "IC50": "< 100"}
{"smiles": "CN1CCN(c2cccc3nc(CN(Cc4ccc(F)cc4)[C@H]4CCCc5cccnc54)cn23)CC1", "note": "[Example 62, (8S)—N-[(4-Fluorophenyl)methyl]-N-{[5-(4-methyl-1-piperazinyl)imidazo[1,2-a]pyridin-2-yl]methyl}-5,6,7,8-tetrahydro-8-quinolinamine]", "IC50": "< 100"}
{"smiles": "CN1CCN(c2cccc3nc(CN(Cc4ccccc4Br)[C@H]4CCCc5cccnc54)cn23)CC1", "note": "[Example 63, (8S)—N-[(2-Bromophenyl)methyl]-N-{[5-(4-methyl-1-piperazinyl)imidazo[1,2-a]pyridin-2-yl]methyl}-5,6,7,8-tetrahydro-8-quinolinamine]", "IC50": "100 to 500"}
{"smiles": "CN1CCN(c2cccc3nc(CN(Cc4cccc(Br)c4)[C@H]4CCCc5cccnc54)cn23)CC1", "note": "[Example 64, (8S)—N-[(3-Bromophenyl)methyl]-N-{[5-(4-methyl-1-piperazinyl)imidazo[1,2-a]pyridin-2-yl]methyl}-5,6,7,8-tetrahydro-8-quinolinamine]", "IC50": "< 100"}
{"smiles": "CN1CCN(c2cccc3nc(CN(Cc4ccc(Br)cc4)[C@H]4CCCc5cccnc54)cn23)CC1", "note": "[Example 65, (8S)—N-[(4-Bromophenyl)methyl]-N-{[5-(4-methyl-1-piperazinyl)imidazo[1,2-a]pyridin-2-yl]methyl}-5,6,7,8-tetrahydro-8-quinolinamine]", "IC50": "< 100"}
{"smiles": "Cc1ccccc1CN(Cc1cn2c(N3CCN(C)CC3)cccc2n1)[C@H]1CCCc2cccnc21", "note": "[Example 66, (8S)—N-[(2-Methylphenyl)methyl]-N-{[5-(4-methyl-1-piperazinyl)imidazo[1,2-a]pyridin-2-yl]methyl}-5,6,7,8-tetrahydro-8-quinolinamine]", "IC50": "< 100"}
{"smiles": "Cc1cccc(CN(Cc2cn3c(N4CCN(C)CC4)cccc3n2)[C@H]2CCCc3cccnc32)c1", "note": "[Example 67, (8S)—N-[(3-Methylphenyl)methyl]-N-{[5-(4-methyl-1-piperazinyl)imidazo[1,2-a]pyridin-2-yl]methyl}-5,6,7,8-tetrahydro-8-quinolinamine]", "IC50": "< 100"}
{"smiles": "Cc1ccc(CN(Cc2cn3c(N4CCN(C)CC4)cccc3n2)[C@H]2CCCc3cccnc32)cc1", "note": "[Example 68, (8S)—N-[(4-Methylphenyl)methyl]-N-{[5-(4-methyl-1-piperazinyl)imidazo[1,2-a]pyridin-2-yl]methyl}-5,6,7,8-tetrahydro-8-quinolinamine]", "IC50": "< 100"}
{"smiles": "CN1CCN(c2cccc3nc(CN(Cc4ccccc4C(F)(F)F)[C@H]4CCCc5cccnc54)cn23)CC1", "note": "[Example 69, (8S)—N-{[5-(4-Methyl-1-piperazinyl)imidazo[1,2-a]pyridin-2-yl]methyl}-N-{[2-(trifluoromethyl)phenyl]methyl}-5,6,7,8-tetrahydro-8-quinolinamine]", "IC50": "100 to 500"}
{"smiles": "CN1CCN(c2cccc3nc(CN(Cc4cccc(C(F)(F)F)c4)[C@H]4CCCc5cccnc54)cn23)CC1", "note": "[Example 70, (8S)—N-{[5-(4-Methyl-1-piperazinyl)imidazo[1,2-a]pyridin-2-yl]methyl}-N-{[3-(trifluoromethyl)phenyl]methyl}-5,6,7,8-tetrahydro-8-quinolinamine]", "IC50": "< 100"}
{"smiles": "CN1CCN(c2cccc3nc(CN(Cc4ccc(C(F)(F)F)cc4)[C@H]4CCCc5cccnc54)cn23)CC1", "note": "[Example 71, (8S)—N-{[5-(4-Methyl-1-piperazinyl)imidazo[1,2-a]pyridin-2-yl]methyl}-N-{[4-(trifluoromethyl)phenyl]methyl}-5,6,7,8-tetrahydro-8-quinolinamine]", "IC50": "< 100"}
{"smiles": "COc1ccccc1CN(Cc1cn2c(N3CCN(C)CC3)cccc2n1)[C@H]1CCCc2cccnc21", "note": "[Example 72, (8S)—N-{[2-(Methyloxy)phenyl]methyl}-N-{[5-(4-methyl-1-piperazinyl)imidazo[1,2-a]pyridin-2-yl]methyl}-5,6,7,8-tetrahydro-8-quinolinamine]", "IC50": "< 100"}
{"smiles": "COc1cccc(CN(Cc2cn3c(N4CCN(C)CC4)cccc3n2)[C@H]2CCCc3cccnc32)c1", "note": "[Example 73, (8S)—N-{[3-(Methyloxy)phenyl]methyl}-N-{[5-(4-methyl-1-piperazinyl)imidazo[1,2-a]pyridin-2-yl]methyl}-5,6,7,8-tetrahydro-8-quinolinamine]", "IC50": "< 100"}
{"smiles": "COc1ccc(CN(Cc2cn3c(N4CCN(C)CC4)cccc3n2)[C@H]2CCCc3cccnc32)cc1", "note": "[Example 74, (8S)—N-{[4-(Methyloxy)phenyl]methyl}-N-{[5-(4-methyl-1-piperazinyl)imidazo[1,2-a]pyridin-2-yl]methyl}-5,6,7,8-tetrahydro-8-quinolinamine]", "IC50": "< 100"}
{"smiles": "CC(C)c1ccc(CN(Cc2cn3c(N4CCN(C)CC4)cccc3n2)[C@H]2CCCc3cccnc32)cc1", "note": "[Example 75, (8S)—N-{[4-(1-Methylethyl)phenyl]methyl}-N-{[5-(4-methyl-1-piperazinyl)imidazo[1,2-a]pyridin-2-yl]methyl}-5,6,7,8-tetrahydro-8-quinolinamine]", "IC50": "< 100"}
{"smiles": "CC(C)Cc1ccc(CN(Cc2cn3c(N4CCN(C)CC4)cccc3n2)[C@H]2CCCc3cccnc32)cc1", "note": "[Example 77, (8S)—N-{[5-(4-Methyl-1-piperazinyl)imidazo[1,2-a]pyridin-2-yl]methyl}-N-{[4-(2-methylpropyl)phenyl]methyl}-5,6,7,8-tetrahydro-8-quinolinamine]", "IC50": "< 100"}
{"smiles": "CN1CCN(c2cccc3nc(CN(CCO)[C@H]4CCCc5cccnc54)cn23)CC1", "note": "[Example 78, 2-{{[5-(4-Methyl-1-piperazinyl)imidazo[1,2-a]pyridin-2-yl]methyl}[(8S)-5,6,7,8-tetrahydro-8-quinolinyl]amino}ethanol]", "IC50": "< 100"}
{"smiles": "CN1CCN(c2cccc3nc(CN(CCCO)[C@H]4CCCc5cccnc54)cn23)CC1", "note": "[Example 79, 3-{{[5-(4-Methyl-1-piperazinyl)imidazo[1,2-a]pyridin-2-yl]methyl}[(8S)-5,6,7,8-tetrahydro-8-quinolinyl]amino}-1-propanol]", "IC50": "< 100"}
{"smiles": "CN(Cc1cn2c(N3CCC(N)CC3)cccc2n1)[C@H]1CCCc2cccnc21", "note": "[Example 80, (8S)—N-{[5-(4-Amino-1-piperidinyl)imidazo[1,2-a]pyridin-2-yl]methyl}-N-methyl-5,6,7,8-tetrahydro-8-quinolinamine]", "IC50": "< 100"}
{"smiles": "CN(C)CCN(C)c1cccc2nc(CN(C)[C@H]3CCCc4cccnc43)cn12", "note": "[Example 81, N,N,N′-Trimethyl-N′-[2-({methyl[(8S)-5,6,7,8-tetrahydro-8-quinolinyl]amino}methyl)imidazo[1,2-a]pyridin-5-yl]-1,2-ethanediamine]", "IC50": "< 100"}
{"smiles": "CN(Cc1cn2c(N3CCN4CCCC4C3)cccc2n1)[C@H]1CCCc2cccnc21", "note": "(stereo partly drawn) [Example 82, (8S)—N-{[5-(Hexahydropyrrolo[1,2-a]pyrazin-2(1H)-yl)imidazo[1,2-a]pyridin-2-yl]methyl}-N-methyl-5,6,7,8-tetrahydro-8-quinolinamine]", "IC50": "< 100"}
